Holding throughout (assay): NCI tumour cell line growth inhibition, 48 h
Experiment [1] has as its system HOP-92.
Experiment [2] has as its system OVCAR-5.
Experiment [3] has as its system OVCAR-3.
The subject of experiment [4] is LOX IMVI.
Experiment [5] concerns NCI-H226.
The subject of experiment [6] is SK-MEL-5.
The subject of experiment [7] is IGROV-1.
For experiment [8], the system named is A549.
The test system of experiment [9] is CCRF-CEM.
In experiment [10] the test system is KM12.
The test system of experiment [11] is NCI-H460.
The test system of experiment [12] is COLO 205.
The test system of experiment [13] is ACHN.
The test system of experiment [14] is MOLT-4.
For experiment [15], the system named is U-251.
The test system of experiment [16] is OVCAR-8.

Structures are written as SMILES.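 1) Cells in 96-well plates. 2) Compound, 48 h, 5 concentrations. 3) Linear interpolation between surrounding doses. 4) Unreached endpoint = highest concentration. The concentration for 50% growth inhibition is given as GI50.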 Activity calls are given as the source filed them. Cut-off read from the data, not from the text of the source: active = GI50 up to about 1.1 µM and inactive = higher.

As to `O=C(Nc1ccccc1[N+](=O)[O-])/C(=N/Nc1cccc(Cl)c1)c1c(O)c2ccccc2oc1=O`, the GI50 was 23.6 µM (inactive) in experiment [1]; > 100 µM (inactive) in experiment [2]; 35.4 µM (inactive) in [3]; > 100 µM (inactive) in [4]; > 100 µM (inactive) in [5]; 49.4 µM (inactive) in [6]. For the same molecule, the GI50 in experiment [7] was 89.3 µM (inactive); in experiment [8], > 100 µM (inactive); in experiment [9], 14.4 µM (inactive); in experiment [10], > 100 µM (inactive); in [11], 38.5 µM (inactive); in [12], 17.7 µM (inactive). Further, the figures for the GI50 in experiment [13] and in experiment [14] were > 100 µM (inactive) and 48 µM (inactive), respectively.
For the molecule `CN(C)c1ccc(/C=c2\sc3nnc(-c4ccco4)n3c2=O)cc1`, the GI50 in experiment [1] was > 100 µM (inactive); in experiment [2] it was > 100 µM (inactive); in experiment [3], > 100 µM (inactive); in [4], > 100 µM (inactive); in experiment [5], > 100 µM (inactive); in experiment [15] it was 57.8 µM (inactive). The GI50 in experiment [6], in experiment [7], in experiment [8], in [9], in experiment [10] and in experiment [11] was > 100 µM (inactive) in each case. Also, the GI50 in [12], in [16] and in experiment [14] was > 100 µM (inactive) each time.
`O=C1CSc2ccncc2N1`: the GI50 in experiment [2], in experiment [3], in experiment [4], in experiment [5], in experiment [15] and in experiment [6] was > 100 µM (inactive) each time. The GI50 in experiment [7], in [8], in experiment [9], in [11], in experiment [12] and in [13] was > 100 µM (inactive) in each case. Also, the GI50 in [16] and in [14] was > 100 µM (inactive) each time.
For the molecule `Nc1nc(NCCO)c(N=O)c(=O)[nH]1`, the GI50 in experiment [1], in experiment [2], in experiment [3], in [4], in experiment [5] and in experiment [15] was > 100 µM (inactive) throughout. Besides, the GI50 in experiment [6], in experiment [7], in experiment [8], in [9], in [10] and in experiment [11] was > 100 µM (inactive) throughout. For the same molecule, the GI50 in experiment [12], in experiment [13] and in [16] was > 100 µM (inactive) in each case.
As for `COC1CC(OC)C(O)C(CO)O1` (centres undefined), the GI50 in experiment [2], in experiment [3], in experiment [4], in experiment [15], in experiment [6] and in experiment [7] was > 100 µM (inactive) each time. The GI50 in experiment [8], in experiment [9], in experiment [10], in experiment [11], in experiment [13] and in experiment [16] was > 100 µM (inactive) in each case. The GI50 in experiment [14] was > 100 µM (inactive).
With `O=C(Cc1c(C(=O)Nc2ccccc2)sc(C(=O)Nc2ccccc2)c1CC(=O)Nc1ccccc1)Nc1ccccc1`, the GI50 in [1], in experiment [2], in [3], in experiment [4], in [5] and in experiment [15] was > 100 µM (inactive) throughout. Moreover, the GI50 in [6], in [7], in [8], in [9], in experiment [10] and in experiment [11] was > 100 µM (inactive) in each case. Moreover, the GI50 in experiment [12], in [13] and in experiment [16] was > 100 µM (inactive) in each case.
As to `CC(C)(C)c1cc(C(O)(C(F)(F)F)C(F)(F)F)c2c(c1)C(C(F)(F)F)(C(F)(F)F)OC(C(C)(C)C)N2` (centres undefined), the GI50 was < 0.01 µM (active) in experiment [1]; 10.9 µM (inactive) in [2]; 2.58 µM (inactive) in [3]; 2.7 µM (inactive) in experiment [5]; 3.61 µM (inactive) in experiment [15]; 1.57 µM (inactive) in experiment [6]. For the same molecule, the GI50 in experiment [7] was 4.95 µM (inactive); in experiment [8], 3.28 µM (inactive); in [10] it was 3.65 µM (inactive); in [11], 3.27 µM (inactive); in experiment [12] it was 3.3 µM (inactive); in [13], 2.72 µM (inactive). For the same molecule, the GI50 in [16] is 3.05 µM (inactive); in experiment [14], 1.63 µM (inactive).
As for `CCOC(=O)C12CCCC1(O)N(NC(=O)c1ccccc1)C(C)=C2C(=O)OC` (centres undefined), the GI50 in [1], in experiment [2], in [3], in experiment [4], in [5] and in experiment [15] was > 100 µM (inactive) in each case. Moreover, the GI50 in [7], in experiment [8], in experiment [9], in experiment [10], in [11] and in [12] was > 100 µM (inactive) in each case. The GI50 in experiment [13], in experiment [16] and in experiment [14] was > 100 µM (inactive) throughout.
For the molecule `COC(=O)C(=O)C(C(=O)C=C(C)C)C(=O)C(=O)Nc1ccc(C)cc1C` (centres undefined), the GI50 in [2], in [3], in experiment [4], in experiment [5], in experiment [15] and in [6] was > 100 µM (inactive) throughout. Besides, the GI50 in [7], in experiment [8], in [9], in experiment [10], in [11] and in experiment [12] was > 100 µM (inactive) throughout. Also, the GI50 in [13], in experiment [16] and in experiment [14] was > 100 µM (inactive) throughout.
Turning to `CC1CC[P+](c2ccccc2)(c2ccccc2)CC1`, the GI50 in experiment [2] is > 100 µM (inactive); in experiment [3] it was 46.2 µM (inactive); in experiment [4] it was 51.3 µM (inactive); in [5], > 100 µM (inactive); in experiment [15] it was 30.5 µM (inactive); in [6], 20.8 µM (inactive). The GI50 in experiment [7] is 98.2 µM (inactive); in [8] it was > 100 µM (inactive); in experiment [9], 67.6 µM (inactive); in [10], 92.5 µM (inactive); in experiment [11], > 100 µM (inactive); in experiment [12], 18.7 µM (inactive). Also, the GI50 in experiment [13], in experiment [16] and in experiment [14] was > 100 µM (inactive) each time.
`COc1ccc2c(c1)C(O)(C(F)(F)F)c1cc(C(=O)C(F)(F)F)c3ccccc3c1N2` (centres undefined): the GI50 in [1] was 16 µM (inactive); in [2], 14.4 µM (inactive); in [3], 14.9 µM (inactive); in [4], 4.99 µM (inactive); in experiment [5], 12.8 µM (inactive); in experiment [6] it was 13.7 µM (inactive). Besides, the GI50 in [7] was 13.8 µM (inactive); in experiment [8], 11.6 µM (inactive); in experiment [9] it was 7.94 µM (inactive); in experiment [10], 4.35 µM (inactive); in experiment [11], 8.89 µM (inactive); in experiment [12], 6.75 µM (inactive). The GI50 in experiment [13] was 5.47 µM (inactive); in experiment [14], 8.99 µM (inactive).
In the case of `Cc1cc(C)nc(NS(=O)(=O)c2ccc(NC(=O)c3ccc(Cl)c4c(Nc5ccc(S(=O)(=O)Nc6nc(C)cc(C)n6)cc5)c5ccccc5nc34)cc2)n1`, the GI50 in [1] was 2.08 µM (inactive); in [2] it was 15.7 µM (inactive); in [3], 29.2 µM (inactive); in experiment [4], 3.91 µM (inactive); in experiment [15] it was 3.24 µM (inactive); in experiment [6] it was 17.7 µM (inactive). Besides, the GI50 was 3.31 µM (inactive) in experiment [7]; 22.8 µM (inactive) in experiment [8]; 4.09 µM (inactive) in [9]; 21.8 µM (inactive) in experiment [10]; 17 µM (inactive) in experiment [11]; 15.9 µM (inactive) in [12]. The GI50 was 26.9 µM (inactive) in experiment [13], 17.4 µM (inactive) in experiment [16] and 4.5 µM (inactive) in [14].
Turning to `COc1ccc2[nH]c3c(cnn4cnnc34)c2c1`, the GI50 was > 100 µM (inactive) in [1]; > 100 µM (inactive) in experiment [2]; > 100 µM (inactive) in experiment [3]; > 100 µM (inactive) in experiment [4]; > 100 µM (inactive) in [15]; 0.262 µM (active) in experiment [6]. For the same molecule, the GI50 in [7], in [8], in experiment [9], in experiment [10], in experiment [11] and in experiment [12] was > 100 µM (inactive) throughout. Moreover, the GI50 in experiment [13], in experiment [16] and in [14] was > 100 µM (inactive) throughout.

These data come from ChEMBL document CHEMBL1201862, “PubChem BioAssay data set” (2004).
